Experimental data: ChEMBL document CHEMBL1201862, “PubChem BioAssay data set” (2004)
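Results reflect a 48-hour exposure of cells in 96-well plates to compound at five concentrations. Here, GI50 denotes the concentration required for 50% inhibition of growth.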 Activity calls are given as the source filed them. No stated cut-off is given here; in the data, active = GI50 up to about 1.1 µM and inactive = higher.

Assays:
Assay in all cases: NCI anticancer screen, dose series, 48 h
NCI-H460 = system: NCI-H460
OVCAR-4 = system: OVCAR-4
SF-295 = system: SF-295
RPMI-8226 = system: RPMI-8226
IGROV-1 = system: IGROV-1
HCC 2998 = system: HCC 2998
SK-MEL-5 = system: SK-MEL-5
UACC-257 = system: UACC-257
U-251 = system: U-251
786-0 = system: 786-0
HCT-116 = system: HCT-116
HT-29 = system: HT-29
OVCAR-8 = system: OVCAR-8
OVCAR-5 = system: OVCAR-5
NCI-H522 = system: NCI-H522
SNB-19 = system: SNB-19
CAKI-1 = system: CAKI-1
A498 = system: A498

Row | Compound | GI50 (NCI-H460) | GI50 (OVCAR-4) | GI50 (SF-295) | GI50 (RPMI-8226) | GI50 (IGROV-1) | GI50 (HCC 2998) | GI50 (SK-MEL-5) | GI50 (UACC-257) | GI50 (U-251) | GI50 (786-0) | GI50 (HCT-116) | GI50 (HT-29) | GI50 (OVCAR-8) | GI50 (OVCAR-5) | GI50 (NCI-H522) | GI50 (SNB-19) | GI50 (CAKI-1) | GI50 (A498)
1 | O=C(CSc1nnc(Cc2ccccc2)o1)Nc1cccc([N+](=O)[O-])c1 | > 100 µM (inactive) | > 100 µM (inactive) | > 100 µM (inactive) | > 100 µM (inactive) | > 100 µM (inactive) | > 100 µM (inactive) | > 100 µM (inactive) | > 100 µM (inactive) | > 100 µM (inactive) | > 100 µM (inactive) | > 100 µM (inactive) | > 100 µM (inactive) | > 100 µM (inactive) | > 100 µM (inactive) | > 100 µM (inactive) | – | – | –
2 | CCOc1ccc(NCC(=O)N2CC(=O)Nc3ccccc32)cc1 | > 100 µM (inactive) | > 100 µM (inactive) | > 100 µM (inactive) | > 100 µM (inactive) | – | > 100 µM (inactive) | > 100 µM (inactive) | > 100 µM (inactive) | > 100 µM (inactive) | > 100 µM (inactive) | > 100 µM (inactive) | > 100 µM (inactive) | > 100 µM (inactive) | > 100 µM (inactive) | > 100 µM (inactive) | > 100 µM (inactive) | > 100 µM (inactive) | –
3 | COc1cc(NC(C)=O)c2[nH]c3c(C)cc(NC(C)=O)c(C)c3c2c1 | > 100 µM (inactive) | > 100 µM (inactive) | > 100 µM (inactive) | > 100 µM (inactive) | > 100 µM (inactive) | > 100 µM (inactive) | > 100 µM (inactive) | – | > 100 µM (inactive) | > 100 µM (inactive) | > 100 µM (inactive) | > 100 µM (inactive) | > 100 µM (inactive) | – | > 100 µM (inactive) | > 100 µM (inactive) | > 100 µM (inactive) | > 100 µM (inactive)
4 | O=C1c2ccccc2C(=O)N1Cc1ccccc1-c1c2nc(c(-c3ccccc3CN3C(=O)c4ccccc4C3=O)c3ccc([nH]3)c(-c3ccccc3CN3C(=O)c4ccccc4C3=O)c3nc(c(-c4ccccc4CN4C(=O)c5ccccc5C4=O)c4ccc1[nH]4)C=C3)C=C2 | > 100 µM (inactive) | > 100 µM (inactive) | 72.1 µM (inactive) | > 100 µM (inactive) | > 100 µM (inactive) | – | 52.7 µM (inactive) | > 100 µM (inactive) | > 100 µM (inactive) | > 100 µM (inactive) | > 100 µM (inactive) | > 100 µM (inactive) | > 100 µM (inactive) | > 100 µM (inactive) | > 100 µM (inactive) | – | > 100 µM (inactive) | > 100 µM (inactive)
5 | Cc1cc(NS(=O)(=O)c2ccc(NC(=O)COC(=O)c3cccc4c(=O)c5ccccc5[nH]c34)cc2)no1 | > 100 µM (inactive) | > 100 µM (inactive) | > 100 µM (inactive) | > 100 µM (inactive) | > 100 µM (inactive) | > 100 µM (inactive) | > 100 µM (inactive) | > 100 µM (inactive) | > 100 µM (inactive) | > 100 µM (inactive) | > 100 µM (inactive) | > 100 µM (inactive) | > 100 µM (inactive) | > 100 µM (inactive) | > 100 µM (inactive) | > 100 µM (inactive) | > 100 µM (inactive) | > 100 µM (inactive)
6 | COC(=O)C(CC(C)C)NC(=O)NC12CC3CC(CC(F)(C3)C1)C2 (centres undefined) | > 100 µM (inactive) | – | – | > 100 µM (inactive) | > 100 µM (inactive) | 29.3 µM (inactive) | > 100 µM (inactive) | > 100 µM (inactive) | > 100 µM (inactive) | > 100 µM (inactive) | > 100 µM (inactive) | > 100 µM (inactive) | > 100 µM (inactive) | > 100 µM (inactive) | > 100 µM (inactive) | > 100 µM (inactive) | – | > 100 µM (inactive)
7 | Cc1c(C)c2cc3c(=O)c(CCl)coc3c(C)c2oc1=O | > 100 µM (inactive) | – | > 100 µM (inactive) | 75 µM (inactive) | > 100 µM (inactive) | > 100 µM (inactive) | > 100 µM (inactive) | > 100 µM (inactive) | > 100 µM (inactive) | 60.5 µM (inactive) | > 100 µM (inactive) | – | > 100 µM (inactive) | > 100 µM (inactive) | 95.3 µM (inactive) | > 100 µM (inactive) | – | > 100 µM (inactive)
8 | CC(C)=CCc1c(O)cc(O)c2c1OC(c1ccc(O)cc1)C(O)C2=O (centres undefined) | 27.6 µM (inactive) | 30.5 µM (inactive) | 27.5 µM (inactive) | – | 32 µM (inactive) | 23.1 µM (inactive) | 22.3 µM (inactive) | 36.2 µM (inactive) | 25.2 µM (inactive) | – | 32.4 µM (inactive) | 20.9 µM (inactive) | 31.8 µM (inactive) | 28.2 µM (inactive) | 18.9 µM (inactive) | 37.2 µM (inactive) | – | 42.2 µM (inactive)
9 | Cc1ccc(Sc2ccccc2[N+](=O)[O-])cc1 | 31.1 µM (inactive) | 27.4 µM (inactive) | 21.6 µM (inactive) | 42.4 µM (inactive) | 83 µM (inactive) | 21 µM (inactive) | 15.3 µM (inactive) | 20 µM (inactive) | 23 µM (inactive) | – | 27.5 µM (inactive) | 19.9 µM (inactive) | 32.2 µM (inactive) | 72.3 µM (inactive) | – | – | – | 47.6 µM (inactive)
10 | COC(=O)C(Cc1nc2ccc(Cl)cc2nc1O)/C(=N/O)C(=O)Nc1cccc(Cl)c1C (centres undefined) | > 100 µM (inactive) | > 100 µM (inactive) | > 100 µM (inactive) | > 100 µM (inactive) | > 100 µM (inactive) | > 100 µM (inactive) | > 100 µM (inactive) | > 100 µM (inactive) | > 100 µM (inactive) | > 100 µM (inactive) | > 100 µM (inactive) | > 100 µM (inactive) | > 100 µM (inactive) | > 100 µM (inactive) | > 100 µM (inactive) | > 100 µM (inactive) | > 100 µM (inactive) | > 100 µM (inactive)
11 | CC(C)OC(=O)C1Cc2c([nH]c3ccccc23)C(c2ccccc2)N1 (centres undefined) | > 100 µM (inactive) | 79.8 µM (inactive) | > 100 µM (inactive) | 84.9 µM (inactive) | > 100 µM (inactive) | 30.5 µM (inactive) | 91.2 µM (inactive) | 68.5 µM (inactive) | > 100 µM (inactive) | 27.7 µM (inactive) | 62.4 µM (inactive) | 98.4 µM (inactive) | > 100 µM (inactive) | > 100 µM (inactive) | 29.2 µM (inactive) | > 100 µM (inactive) | > 100 µM (inactive) | 88.5 µM (inactive)
12 | CCOC(=O)/C(C#N)=C1/C(O)=C(C(=O)OC)C(C(=O)OC)=C1C(=O)OC.c1ccncc1 | > 100 µM (inactive) | > 100 µM (inactive) | > 100 µM (inactive) | > 100 µM (inactive) | > 100 µM (inactive) | > 100 µM (inactive) | > 100 µM (inactive) | > 100 µM (inactive) | > 100 µM (inactive) | > 100 µM (inactive) | – | > 100 µM (inactive) | > 100 µM (inactive) | > 100 µM (inactive) | > 100 µM (inactive) | > 100 µM (inactive) | > 100 µM (inactive) | –
13 | CCOc1cccc2sc(N)nc12 | > 100 µM (inactive) | > 100 µM (inactive) | > 100 µM (inactive) | > 100 µM (inactive) | > 100 µM (inactive) | > 100 µM (inactive) | > 100 µM (inactive) | > 100 µM (inactive) | > 100 µM (inactive) | > 100 µM (inactive) | > 100 µM (inactive) | > 100 µM (inactive) | > 100 µM (inactive) | > 100 µM (inactive) | > 100 µM (inactive) | > 100 µM (inactive) | > 100 µM (inactive) | > 100 µM (inactive)
14 | C[N+](C)(C)CC(=O)N/N=C(\CCC(=O)NCCc1ccccc1)CC(=O)c1ccccc1 | > 100 µM (inactive) | > 100 µM (inactive) | > 100 µM (inactive) | > 100 µM (inactive) | > 100 µM (inactive) | > 100 µM (inactive) | > 100 µM (inactive) | > 100 µM (inactive) | > 100 µM (inactive) | > 100 µM (inactive) | > 100 µM (inactive) | > 100 µM (inactive) | > 100 µM (inactive) | > 100 µM (inactive) | > 100 µM (inactive) | > 100 µM (inactive) | > 100 µM (inactive) | > 100 µM (inactive)
15 | COc1cc(C(=O)C/C(CCC(=O)Nc2ccc(Cl)cc2Cl)=N/NC(=O)C(N)=O)ccc1O | > 100 µM (inactive) | > 100 µM (inactive) | > 100 µM (inactive) | > 100 µM (inactive) | > 100 µM (inactive) | > 100 µM (inactive) | > 100 µM (inactive) | > 100 µM (inactive) | > 100 µM (inactive) | > 100 µM (inactive) | > 100 µM (inactive) | > 100 µM (inactive) | > 100 µM (inactive) | > 100 µM (inactive) | > 100 µM (inactive) | > 100 µM (inactive) | > 100 µM (inactive) | > 100 µM (inactive)
16 | COc1cc2c(c(OC)c1OC)-c1ccc(SC)c(=O)cc1[C@@H](NCc1ccc(C#N)cc1)CC2 | 0.00379 µM (active) | 3.74 µM (inactive) | 0.00369 µM (active) | 0.00315 µM (active) | 0.00412 µM (active) | 0.00291 µM (active) | 0.00365 µM (active) | 0.00671 µM (active) | 0.0031 µM (active) | 0.00528 µM (active) | 0.00387 µM (active) | 0.00239 µM (active) | 0.0041 µM (active) | 0.00736 µM (active) | 0.00278 µM (active) | 0.0488 µM (active) | 0.00701 µM (active) | 0.00589 µM (active)
